pEC50: −log10 of the molar value. Activity calls are given as the source filed them. No cut-off for these calls is given here.
Columns and labels:
[1] = target: T1, Peroxisome proliferator-activated receptor alpha (Homo sapiens) (UniProt Q07869); assay: Agonist activity at human PPARalpha-Gal4 in HEK293 cells by luciferase reporter assay relative to (S)-2-{2-[1-ethyl-3-(4-trifluoro-methoxyphenyl)ureido]indan-5-ylsulfanyl}-2-methylpropionic acid; format: functional, cell-based
T1 sequence (whole entry): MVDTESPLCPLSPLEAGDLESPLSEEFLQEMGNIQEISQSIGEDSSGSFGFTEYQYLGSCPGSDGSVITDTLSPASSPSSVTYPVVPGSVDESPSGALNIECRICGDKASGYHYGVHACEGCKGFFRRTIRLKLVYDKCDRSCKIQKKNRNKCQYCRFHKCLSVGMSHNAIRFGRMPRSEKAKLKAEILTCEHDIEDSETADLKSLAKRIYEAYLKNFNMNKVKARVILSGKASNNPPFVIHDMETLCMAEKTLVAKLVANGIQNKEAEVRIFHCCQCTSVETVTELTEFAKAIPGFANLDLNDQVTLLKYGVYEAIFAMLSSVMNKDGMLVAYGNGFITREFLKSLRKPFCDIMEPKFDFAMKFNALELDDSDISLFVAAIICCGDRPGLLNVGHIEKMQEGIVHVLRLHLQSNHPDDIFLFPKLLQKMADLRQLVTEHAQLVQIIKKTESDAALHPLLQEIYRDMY

[2] = target: T2, Peroxisome proliferator-activated receptor delta (Homo sapiens, UniProt Q03181); assay: Agonist activity at human PPARdelta-Gal4 in HEK293 cells by luciferase reporter assay; format: functional, cell-based
T2 sequence (Q03181 whole entry): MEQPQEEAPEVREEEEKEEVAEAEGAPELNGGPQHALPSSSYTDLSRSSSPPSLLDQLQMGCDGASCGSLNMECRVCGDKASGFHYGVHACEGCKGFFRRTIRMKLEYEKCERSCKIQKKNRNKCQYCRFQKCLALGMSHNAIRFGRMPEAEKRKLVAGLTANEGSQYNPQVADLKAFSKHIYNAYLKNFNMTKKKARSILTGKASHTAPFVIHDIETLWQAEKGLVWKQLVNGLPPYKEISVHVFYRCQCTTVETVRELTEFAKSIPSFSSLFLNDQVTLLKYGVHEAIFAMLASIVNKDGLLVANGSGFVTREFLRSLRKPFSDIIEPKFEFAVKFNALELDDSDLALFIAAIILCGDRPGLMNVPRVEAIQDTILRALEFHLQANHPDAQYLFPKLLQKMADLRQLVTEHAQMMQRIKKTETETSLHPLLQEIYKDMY

[3] = target: T3, Peroxisome proliferator-activated receptor alpha (Homo sapiens, UniProt Q07869); assay: Agonist activity at human PPARalpha-Gal4 in HEK293 cells by luciferase reporter assay; format: functional, cell-based
T3 sequence (Q07869 whole entry): T1 sequence (whole entry)

[4] = target: T4, Peroxisome proliferator-activated receptor gamma (Homo sapiens, UniProt P37231); assay: Agonist activity at human PPARgamma-Gal4 in HEK293 cells by luciferase reporter assay; format: functional, cell-based
T4 sequence (P37231 whole entry): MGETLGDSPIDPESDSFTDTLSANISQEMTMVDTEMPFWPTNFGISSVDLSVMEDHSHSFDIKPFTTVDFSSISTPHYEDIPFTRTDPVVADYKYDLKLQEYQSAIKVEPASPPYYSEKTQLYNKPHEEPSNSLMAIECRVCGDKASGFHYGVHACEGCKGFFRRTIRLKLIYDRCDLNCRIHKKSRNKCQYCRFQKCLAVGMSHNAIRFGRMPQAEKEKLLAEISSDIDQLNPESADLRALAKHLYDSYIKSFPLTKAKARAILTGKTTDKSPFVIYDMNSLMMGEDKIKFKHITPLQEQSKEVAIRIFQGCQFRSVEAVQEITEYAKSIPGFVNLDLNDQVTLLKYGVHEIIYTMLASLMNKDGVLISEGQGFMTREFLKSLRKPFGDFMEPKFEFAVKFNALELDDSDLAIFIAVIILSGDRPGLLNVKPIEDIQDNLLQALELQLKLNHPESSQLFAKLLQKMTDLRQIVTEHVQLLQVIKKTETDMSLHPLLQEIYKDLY

[5] = Activity at retinoic acid X receptor
[6] = target: T5, Bile acid receptor (Homo sapiens) (UniProt Q96RI1); assay: Activity at farnesoid X receptor
T5 sequence (whole entry): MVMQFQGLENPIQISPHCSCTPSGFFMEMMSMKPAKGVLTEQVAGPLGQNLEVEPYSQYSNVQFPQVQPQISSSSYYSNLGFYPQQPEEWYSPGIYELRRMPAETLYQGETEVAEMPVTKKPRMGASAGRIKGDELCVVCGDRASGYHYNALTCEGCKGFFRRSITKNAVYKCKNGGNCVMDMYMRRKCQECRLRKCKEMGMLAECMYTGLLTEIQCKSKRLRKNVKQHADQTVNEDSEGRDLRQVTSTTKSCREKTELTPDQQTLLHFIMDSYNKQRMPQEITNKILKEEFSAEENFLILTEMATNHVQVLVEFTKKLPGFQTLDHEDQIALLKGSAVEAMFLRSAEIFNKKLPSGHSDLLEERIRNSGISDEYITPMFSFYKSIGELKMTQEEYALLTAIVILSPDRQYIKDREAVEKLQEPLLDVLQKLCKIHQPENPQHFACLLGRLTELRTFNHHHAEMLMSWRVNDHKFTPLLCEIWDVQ

[7] = Activity at liver X receptor
[8] = Activity at retinoic acid receptor
[9] = target: T6, Glucocorticoid receptor (Homo sapiens) (UniProt P04150); assay: Activity at glucocorticoid receptor
T6 sequence (whole entry): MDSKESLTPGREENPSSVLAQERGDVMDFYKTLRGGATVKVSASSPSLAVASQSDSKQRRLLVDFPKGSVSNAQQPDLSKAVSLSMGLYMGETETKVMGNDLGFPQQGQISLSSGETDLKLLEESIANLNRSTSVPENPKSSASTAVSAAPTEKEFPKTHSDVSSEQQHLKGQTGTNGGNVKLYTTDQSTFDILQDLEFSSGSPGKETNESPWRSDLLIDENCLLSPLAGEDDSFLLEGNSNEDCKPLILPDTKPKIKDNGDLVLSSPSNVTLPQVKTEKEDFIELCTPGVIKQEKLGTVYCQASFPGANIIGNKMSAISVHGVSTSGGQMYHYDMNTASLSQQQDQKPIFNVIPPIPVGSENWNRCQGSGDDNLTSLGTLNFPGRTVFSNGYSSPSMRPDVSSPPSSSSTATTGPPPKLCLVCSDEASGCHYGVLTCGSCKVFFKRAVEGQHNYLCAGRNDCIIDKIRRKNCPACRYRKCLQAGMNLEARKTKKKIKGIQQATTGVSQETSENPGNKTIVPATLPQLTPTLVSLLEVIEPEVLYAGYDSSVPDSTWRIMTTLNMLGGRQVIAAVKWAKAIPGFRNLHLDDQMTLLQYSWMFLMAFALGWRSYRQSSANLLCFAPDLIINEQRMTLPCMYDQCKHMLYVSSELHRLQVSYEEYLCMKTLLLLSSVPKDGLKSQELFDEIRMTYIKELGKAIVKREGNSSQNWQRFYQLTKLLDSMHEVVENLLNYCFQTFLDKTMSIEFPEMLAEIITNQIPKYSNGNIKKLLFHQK

For Cc1cc(SCc2nc(-c3ccc(Cl)cc3)ns2)ccc1OC(C)(C)C(=O)O, the Efficacy [1] was 38%.
Work on Cc1cc(OCc2nc(-c3ccc(OC(F)(F)F)cc3)ns2)ccc1OC(C)(C)C(=O)O yielded an Efficacy [1] of 80%.
Cc1cc(SCc2nsc(-c3ccc(OC(F)(F)F)cc3)n2)ccc1OC(C)(C)C(=O)O gave an Efficacy [1] of 47%.
For Cc1cc(SCc2nc(-c3ccc(C(F)(F)F)c(F)c3)ns2)ccc1OC(C)(C)C(=O)O, the pEC50 [2] was 8.30 and the Efficacy [1] was 53%.
Compound Cc1cc(OCc2nc(-c3ccc(C(F)(F)F)cc3)ns2)ccc1OC(C)(C)C(=O)O has an Efficacy [1] of 71%.
With Cc1cc(SCc2nc(-c3ccc(OC(F)(F)F)cc3)ns2)ccc1OC1(C(=O)O)CCCC1 the Efficacy [1] was 31%.
Cc1cc(SCc2nc(-c3ccc(C(F)(F)F)cc3)ns2)ccc1OCC(=O)O showed an Efficacy [1] of 42%.
Cc1cc(SCc2nc(-c3ccc(OC(F)(F)F)c(Cl)c3)ns2)ccc1OC(C)(C)C(=O)O showed a pEC50 [2] of 8.52 and an Efficacy [1] of 73%.
Cc1cc(SCCc2nc(-c3ccc(C(F)(F)F)cc3)ns2)ccc1OC(C)(C)C(=O)O gave an Efficacy [1] of 65%.
Work on Cc1cc(SCc2cc(-c3ccc(C(F)(F)F)cc3)ns2)ccc1OCC(=O)O yielded an Efficacy [1] of 43% and a pEC50 [3] of 5.89.
For Cc1cc(SCc2nc(-c3ccc(Cl)cc3Cl)ns2)ccc1OC(C)(C)C(=O)O, the Efficacy [1] was 33%.
Cc1cc(SCc2nc(-c3ccc(C(F)(F)F)cc3)ns2)ccc1OC(C)(C)C(=O)O gave an Efficacy [1] of 51%.
In the case of Cc1cc(OCc2nc(-c3ccc(Cl)c(Cl)c3)ns2)ccc1OC(C)(C)C(=O)O, the Efficacy [1] was 83%.
Work on Cc1ccc(-c2nsc(CSc3ccc(OC(C)(C)C(=O)O)c(C)c3)n2)cc1C yielded an Efficacy [1] of 45% and a pEC50 [4] of less than 5.52.
For Cc1cc(SCCc2nc(-c3ccc(Cl)c(Cl)c3)ns2)ccc1OC(C)(C)C(=O)O, the pEC50 [2] was 8.05, the Efficacy [1] was 71% and the pEC50 [4] was 6.09.
With Cc1ccc(-c2nsc(COc3ccc(OC(C)(C)C(=O)O)c(C)c3)n2)cc1C the Efficacy [1] was 58%.
CC(C)(Oc1ccc(SCc2nc(-c3ccc(C(F)(F)F)cc3)ns2)cc1)C(=O)O showed a pEC50 [2] of 7.70, a pEC50 [4] of less than 5.52 and a pEC50 [3] of 6.81.
In the case of Cc1cc(SCc2cc(-c3ccc(C(F)(F)F)cc3)on2)ccc1OCC(=O)O, the Efficacy [1] was 41%.
Cc1ccc(-c2nsc(CSc3ccc(OC(C)(C)C(=O)O)c(C)c3)n2)cc1Cl gave a pEC50 [2] of 7.60, an Efficacy [1] of 74% and a pEC50 [3] of 7.15.
For Cc1cc(OCc2nc(-c3ccc(OC(F)(F)F)c(Cl)c3)ns2)ccc1OC(C)(C)C(=O)O, the Efficacy [1] was 101%.
Work on Cc1cc(SCc2nsc(-c3ccc(C(F)(F)F)cc3)n2)ccc1OC(C)(C)C(=O)O yielded an Efficacy [1] of 38%.
Cc1cc(SCc2cc(-c3ccc(C(F)(F)F)cc3)sn2)ccc1OCC(=O)O showed an Efficacy [1] of 43%.
For Cc1cc(SCc2nc(-c3ccc(OC(F)(F)F)cc3)ns2)ccc1OC(C)(C)C(=O)O, the Efficacy [1] was 44%, the Activity [5] was “inactive” and the Activity [6] was “inactive”. The Activity [7] was “inactive”, the Activity [8] was “inactive” and the Activity [9] was “inactive”.
Cc1cc(OCc2nc(-c3ccc(C(F)(F)F)c(F)c3)ns2)ccc1OC(C)(C)C(=O)O gave an Efficacy [1] of 65% and a pEC50 [3] of 7.07.
Work on Cc1ccc(-c2nsc(COc3ccc(OC(C)(C)C(=O)O)c(C)c3)n2)cc1Cl yielded an Efficacy [1] of 75%.
